Patent US10265257B2, “Personal care composition” (Innospec Limited, priority 2007, dated 2019)
Like-named read-outs stand apart in the source and are kept apart here. Values belong to the substance of their own block, whether it stands above or below them.

Tests used:
Zein protein [1] = settings: stated as known for comparison compounds; cited from earlier work
[2] = Simple solubility tests in deionised water; format: physicochemical
[3] = pH stability of SCMI solutions over time; format: physicochemical
Protocol: (§1) The pH values were read using a standard electrode pH meter (Fisher Accument XL-25). The electrode was place in the composition (no further dilution) and the pH recorded.
In a preliminary test 10 wt % solutions of SCMI, adjusted to have initial pH values respectively of 4.5, 5.5, 6.5, 7.5, 8.5 and 9.5, each held at 48.9° C. for an extended period of days, were tested for their pH stability over the extended period. The pH testing was as described above.

[4] = Stability of SCMI in aqueous solution (amount of SCMI present over time); format: physicochemical; settings: 10 wt % aqueous solutions, initial pH 4.5, 5.5, 6.5, 7.5, 8.5 and 9.5, held at 48.9° C., 30 days
Protocol: In a preliminary test the stability of SCMI in 10 wt % aqueous solutions adjusted to have initial pH values respectively of 4.5, 5.5, 6.5, 7.5, 8.5 and 9.5, each held at 48.9° C. for an extended period of days, were tested for the amount of SCMI present over the test period.
as §1

Zein protein [5] = experiment: Zein protocol in-vitro skin irritancy test; settings: FIG. 3, surfactant solution 2 wt %, 1 hour at 35° C.
Excerpt: (§2) The Zein protocol is an in-vitro test to measure skin irritancy of formulations. The method makes use of the correlation between binding ability of surfactants to proteins and the damage the surfactant causes to the skin. […] Zein protein, an insoluble protein extracted from corn kernel, is used as a model for epidermal protein and the solubility of the Zein protein in surfactant solutions is believed to be a reliable guide for the skin irritancy caused by the surfactant. The test involves establishing the amount of Zein protein which can be solubilised by surfactant. 5 g of Zein protein may be dispersed in 40 cm^3 of surfactant solution (at 2 wt % concentration). The mixture is shaken for 1 hour at 35° C., and immediately centrifuged to remove any non-solubilised Zein. The amount solubilised is estimated from the solution nitrogen content using micro-Kjeldahl method (making allowance for any nitrogen in the compound tested).

Zein protein [6] = system: Zein protein
Excerpt: as §2

Substance: sodium cocoyl isethionate [SCI]
- skin irritancy, known (Zein protein [1]): low irritancy

- appearance of 10 wt % in deionised water (solubility test) [2]: clear solution
- pH change of sample held at highest pH value ([3]; 10 wt % solution, initial pH 9.5, 48.9° C., first few days): small pH reduction
- pH values from Day 0 to Day 30 ([3]; 10 wt % solutions, initial pH 4.5 to 9.5, held at 48.9° C., 30 days): substantially unchanged
- percentage of SCMI present, Day 0 to Day 30 [4]: does not change
Substance: sodium cocoylmethylisethionate [SCMI]
- skin irritancy (Zein protocol) (Zein protein [5]): low irritancy

Substance: sodium laureth sulfate [SLES]
- skin irritancy, known (Zein protein [1]): significant irritancy

Substance: sodium lauroylmethylisethionate [SLMI]
- skin irritancy (Zein protocol) (Zein protein [6]): low irritancy
